Data reported in EPA's ToxValDB 9.5 (doi:10.2903/j.efsa.2008.152r).

Legend:
Colinus virginianus = settings: acute, oral, mortality
Aphidius rhopalosiphi = experiment: LR50; higher = less toxic; settings: not reported; mortality
Pimephales promelas = settings: chronic/long-term; duration: 28 days; growth
Canidae = settings: chronic; duration: 1 years; oral; Dog Other; clinical chemistry
Apis mellifera = settings: acute, mortality
Daphnia magna = settings: chronic/long-term; duration: 21 days; reproduction
Bibionidae = settings: chronic/long-term; duration: 28 days

SMILES | LC50 (Colinus virginianus; diet) [mg/kg] | LR50 (Aphidius rhopalosiphi) [g/ha] | NOEC (Pimephales promelas) [mg/L] | NOAEL (Canidae) [mg/kg-day] | NOEC (Anas platyrhynchos; reproductive) [mg/kg-day] | LC50 (Anas platyrhynchos; short-term, oral, feed, mortality) [mg/kg-day] | LD50 (Apis mellifera; dermal) [µg/piece] | LD50 (Apis mellifera; oral, unspecified) [µg/piece] | NOEC (Daphnia magna) [mg/L] | NOEC (Bibionidae) [mg/L] | LC50 (Tagia sp.; acute, duration: 14 days, mortality) [mg/kg] | NOEC (Tagia sp.; chronic/long-term, duration: 4 weeks) [mg/kg] | LD50 (Rattus norvegicus; acute, mortality) [mg/kg-day] | NOAEL (Rattus norvegicus; chronic, duration: 2 years, oral, diet, organ weight) [mg/kg-day] | NOAEL (Rattus norvegicus; reproduction developmental, body weight) [mg/kg-day] | NOAEL (Rattus norvegicus; reproduction developmental, reproduction) [mg/kg-day] | LD50 (Colinus virginianus) [mg/kg-day]
NC(Cc1ncn[nH]1)C(=O)O (configuration not stated) [1,2,4-Triazole-3-alanine] | > 5000 |  |  |  |  |  |  |  |  |  |  |  |  |  |  |  | 
FC(F)C(F)(F)OCC(Cn1cncn1)c1ccc(Cl)cc1Cl (configuration not stated) [Tetraconazole] |  | 125 | 0.3 | 2.95 | 1.6 | 55.5 | 63 | > 130 | 0.19 | 4.45 | 71 | ≤ 8.2 | 1030 | 0.4 | 5 | 3.6 | 132
